The target of this assay is T1, NLRP3 (Homo sapiens, UniProt Q96P20).
T1 construct: endogenous in cells; host or cells: THP-1 cells (IFN-γ differentiated, LPS primed, ATP stimulated)
Nature of the assay: IL-1β (interleukin-1β) secretion in IFN-γ-differentiated, LPS/ATP-stimulated THP-1 cells (half inhibition rate of NLRP3). The format is cell-based. Particulars: IFN-γ 25 ng/mL, LPS 50 ng/mL, ATP 5 mM. On the procedure: Remove THP-1 cells from liquid nitrogen and place in a 37° C. water bath until ice melt. Add the cells to 5 mL of warm cell culture medium and centrifuge at 1,000 rpm for 5 min. Discard the supernatant and resuspend and culture in a new cell culture medium.
THP-1 cells are cultured in the culture medium and passaged every 2-3 days.
2.1.1 Add 100 μL of cell suspension per well to the cell plate and incubate the cell plate in a 37° C., 5% CO2 incubator for 24 hours.
2.2.1 Discard the supernatant of IFN-γ differentiation after differentiation treatment. Add 100 μL of serum-free medium containing LPS (final concentration of 50 ng/mL) to the cell plate. The cell plates were incubated in a 37° C., 5% CO2 incubator for 4 h.
Place the cell plate in an incubator at 37° C. and 5% CO2 for 1 hour.
2.2.3 Add 20 μL of 6×ATP per well according to the plate map (final concentration 5 mM) and incubate the cell plate in a 37° C., 5% CO2 incubator for 1 h. Collect the supernatant (60 μL) and store at −20° C.
The capture antibody mAb Mt175 is diluted to 2 μg/mL with PBS (1:250) and added to the cell plate at 15 μL per well. Keep the plate overnight at 4° C.
2.4.1 Discard the coated antibody and wash 4 times with PBST.
2.4.3 Discard the blocking buffer and wash 4 times with PBST.
2.4.4 Add 25 μL of 2.2.3 collected supernatant sample per well and incubate for 2 h at room temperature.
2.4.5 Discard the samples and wash 4 times with PBST.
2.4.6 Add mAb7P10-biotin (concentration 0.5 ug/mL) to blocking buffer, add 15 μL per well to the cell plate, and incubate for 1 hour at room temperature.
2.4.7 Discard the antibody and wash 4 times with PBST.
2.4.8 Streptavidin-HRP was diluted 1:1000 in blocking buffer, 15 μL per well was added to the cell plate, and incubated for 1 hour at room temperature.
2.4.9 Discard streptavidin-HRP and wash 4 times with PBST.
2.4.10 Add 25 μL of HRP substrate (Surmodics-TMBW-0100-01) per well and incubate the cell plate until a blue product appears.
2.4.11 Add 25 μL of stop solution (Surmodics-LSTP-0100-01) per well, and the blue product turns yellow.
2.4.12 Read the cell plate at 450 nm with a microplate reader.

SMILES strings stand for the structures.

One may read the IC50 as the point on the concentration scale where inhibition reaches its midpoint. A higher IC50 goes with lower potency.

T1 sequence (Q96P20 whole entry): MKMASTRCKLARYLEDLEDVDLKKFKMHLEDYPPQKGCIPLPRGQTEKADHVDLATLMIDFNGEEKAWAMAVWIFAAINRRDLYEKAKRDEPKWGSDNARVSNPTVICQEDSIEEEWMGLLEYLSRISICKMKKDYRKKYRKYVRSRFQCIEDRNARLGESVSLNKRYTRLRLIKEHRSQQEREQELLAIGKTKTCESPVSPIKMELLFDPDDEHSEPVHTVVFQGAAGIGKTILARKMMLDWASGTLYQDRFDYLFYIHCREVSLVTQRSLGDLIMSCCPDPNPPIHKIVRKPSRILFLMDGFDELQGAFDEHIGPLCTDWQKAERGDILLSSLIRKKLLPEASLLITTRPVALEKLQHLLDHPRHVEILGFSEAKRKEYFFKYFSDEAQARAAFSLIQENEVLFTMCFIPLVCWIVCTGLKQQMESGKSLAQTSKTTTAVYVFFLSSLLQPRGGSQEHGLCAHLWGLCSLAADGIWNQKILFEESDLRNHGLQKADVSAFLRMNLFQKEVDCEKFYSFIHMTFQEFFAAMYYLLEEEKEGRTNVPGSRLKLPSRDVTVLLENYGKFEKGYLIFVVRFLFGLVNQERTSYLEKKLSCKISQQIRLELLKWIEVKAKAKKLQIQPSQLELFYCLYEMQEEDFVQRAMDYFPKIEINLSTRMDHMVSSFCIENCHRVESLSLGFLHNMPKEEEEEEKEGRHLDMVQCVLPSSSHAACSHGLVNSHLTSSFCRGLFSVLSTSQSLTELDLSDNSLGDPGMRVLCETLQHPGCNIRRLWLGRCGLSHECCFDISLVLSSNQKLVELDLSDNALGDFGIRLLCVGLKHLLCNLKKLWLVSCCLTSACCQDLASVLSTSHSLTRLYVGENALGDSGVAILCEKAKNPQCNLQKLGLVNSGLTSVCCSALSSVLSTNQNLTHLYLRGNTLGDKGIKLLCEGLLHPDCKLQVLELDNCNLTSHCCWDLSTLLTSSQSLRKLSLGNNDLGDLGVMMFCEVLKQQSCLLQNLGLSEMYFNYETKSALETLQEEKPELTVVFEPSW

On to `Cc1cc(C)c(-c2cnc(N[C@@H]3CCCN(CC(=O)O)C3)nn2)c(O)c1` [Embodiment 3, (R)-2-(3-((6-(2-hydroxy-4,6-dimethylphenyl)-1,2,4-triazin-3-yl)amino)piperidin-1-yl)acetic acid], for which 53.5 nM corresponded to half-maximal inhibition (IC50). In other words, the double-digit nanomolar range.

Take `Cc1cc(C)c(-c2cnc(NC3CCCN4CCCC34)nn2)c(O)c1` [Embodiment 4, (R)-3,5-dimethyl-2-(9-((1,2,3,5,6,7,8,8a-octahydroindozine-9-yl)amino)-1,2,4-triazin-6-yl)phenol]: half-maximal inhibition (IC50) required 32.1 nM.

Molecule `Cc1nc(N[C@@H]2CCCN(C)C2)nnc1-c1ccc(Cl)cc1O` [Embodiment 7, (R)-5-Chloro-2-(5-methyl-3-((1-methylpiperidin-3-yl)amino)-1,2,4-triazin-6-yl)phenol] gave an IC50 of 1.2 nM.

For `Cc1nc(N[C@@H]2CCCN(C)C2)nnc1-c1ccc(C(F)(F)F)cc1O` [Embodiment 8, (R)-2-(5-methyl-3-((1-methylpiperidin-3-yl)amino)-1,2,4-triazin-6-yl)-5-(trifluoromethyl)phenol], it took 1.5 nM to reach half-maximal inhibition (IC50). The IC50 values of the last two molecules are within 1.5-fold of each other.

The molecule `Cc1nc(N[C@@H]2CCCN(C)C2)nnc1-c1ncc(C(F)(F)F)cc1O` [Embodiment 9, (R)-2-(5-methyl-3-((1-methylpiperidin-3-yl)amino)-1,2,4-triazin-6-yl)-5-(trifluoromethyl)pyridin-3-ol] gave an IC50 of 67 nM.

Turning to `Cc1cc(C(F)(F)F)cc(O)c1-c1cnc(N[C@@H]2CCCN(C)C2)nn1` [Embodiment 10, (R)-3-methyl-2-(3-((1-methylpiperidin-3-yl)amino)-1,2,4-triazin-6-yl)-5-(trifluoromethyl)phenol], the IC50 was 15.5 nM.

As for `Cc1cc(Cl)cc(O)c1-c1cnc(N[C@@H]2CCCN(C)C2)nn1` [Embodiment 11, (R)-5-chloro-3-methyl-2-(3-((1-methylpiperidin-3-yl)amino)-1,2,4-triazin-6-yl)phenol], the IC50 was determined as 4 nM.

In the case of `Cc1cc(N[C@@H]2CCCN(C)C2)nnc1-c1ncc(C(F)(F)F)cc1O` [Embodiment 12, (R)-2-(4-methyl-6-((1-methylpiperidin-3-yl)amino)pyridazin-3-yl)-5-(trifluoromethyl)pyridin-3-ol], the IC50 amounted to 31.1 nM.

In turn, `CN1CCC[C@@H](Nc2nnc(-c3ccc(C(F)(F)F)cc3O)c3occc23)C1` [Embodiment 15, (R)-2-(4-((1-methylpiperidin-3-yl)amino)furo[2,3-d]pyridazin-7-yl)-5-(trifluoromethyl)phenol] displayed an IC50 of 28 nM.

Consider `CN1CCC[C@@H](Nc2nnc(-c3ccc(C(F)(F)F)cc3O)c3ccoc23)C1` [Embodiment 18, (R)-2-(7-((1-methylpiperidin-3-yl)amino)furo[2,3-d]pyridazin-4-yl)-5-(trifluoromethyl)phenol], for which the midpoint of inhibition, the IC50, lay at 5.7 nM. This IC50 is about 4.9-fold lower than that of the molecule before.

Consider `CN1CCC[C@@H](Nc2nnc(-c3ccc(C(F)(F)F)cc3O)c3c2CCO3)C1` [Embodiment 19, (R)-2-(4-((1-methylpiperidin-3-yl)amino)-2,3-dihydrofuro[2,3-d]pyridazin-7-yl)-5-(trifluoromethyl)phenol], for which the IC50 stood at 85.2 nM. Compared with the last molecule, the IC50 is about 15-fold higher.

`CN1CCC[C@@H](Nc2nnc(-c3ccc(C(F)(F)F)cc3O)c3cc[nH]c23)C1` [Embodiment 20]: the midpoint of inhibition, the IC50, lay at 21.3 nM. Against the preceding molecule, the IC50 is about 4-fold lower.

Molecule `CN1CCC[C@@H](Nc2nnc(-c3ccc(C(F)(F)F)cc3O)c3[nH]ccc23)C1` [Embodiment 21] came in with an IC50 of 49.4 nM. This IC50 lies about 2.3-fold higher than the previous one.

The molecule `Cc1cc(C)c(-c2cnc(N[C@@H]3CCCN(C(C)CO)C3)nn2)c(O)c1` (stereo partly drawn) [Embodiment 22, 2-(3-(((3R)-1-(1-hydroxypropyl-2-yl)piperidin-3-yl)amino)-1,2,4-triazin-6-yl)-3,5-dimethylphenol] showed an IC50 of 24 nM. Against the preceding molecule, the IC50 is about 2.1-fold lower.

With `Cc1cc(C)c(-c2cnc(N[C@@H]3CCCN(CC(N)=O)C3)nn2)c(O)c1` [Embodiment 23, (R)-2-(3-((6-(2-hydroxy-4,6-dimethylphenyl)-1,2,4-triazin-3-yl)amino)piperidin-1-yl)acetamide], inhibition was half-maximal at 376 nM (IC50).

Regarding `Cc1cc(C)c(-c2cnc(N[C@@H]3CCCN(CC(=O)N[C@@H](C)CO)C3)nn2)c(O)c1` [Embodiment 24, 2-((R)-3-((6-(2-hydroxy-4,6-dimethylphenyl)-1,2,4-triazin-3-yl)amino)piperidin-1-yl)-N—((S)-1-hydroxypropyl-2-yl)acetamide], the IC50 stood at 193 nM.

In turn, `Cc1cc(C)c(-c2cnc(N[C@@H]3CCCN(CC(=O)N[C@H]4C[C@@](C)(O)C4)C3)nn2)c(O)c1` [Embodiment 25] returned an IC50 of 317 nM.

`Cc1cc(C)c(-c2nnc(N[C@@H]3CCCN(C)C3)nn2)c(O)c1` [Embodiment 26, (R)-3,5-Dimethyl-2-(6-((1-methylpiperidin-3)amino)-1,2,4,5-tetraazin-3)phenol] returned an IC50 of 446 nM.

The molecule `Cc1ccc(-c2nnc(N[C@@H]3CCCN(C)C3)c3ccccc23)c(O)c1` [Embodiment 27, (R)-5-methyl-2-(4-((1-methylpiperidin-3-yl)amino)phthalazin-1-yl)phenol] yielded an IC50 of 1.4 nM.

Turning to `CN1CCC[C@@H](Nc2nnc(-c3ccc(Cl)cc3O)c3ccccc23)C1` [Embodiment 28, (R)-5-chloro-2-(4-((1-methylpiperidin-3-yl)amino)phthalazin-1-yl)phenol], the IC50 was 1.1 nM.

`Cc1cc(Cl)cc(O)c1-c1nnc(N[C@@H]2CCCN(C)C2)c2ccccc12` [Embodiment 29] registered an IC50 of 5.1 nM.

The molecule `CN1CCC[C@@H](Nc2nnc(-c3ccc(C(F)(F)F)cc3O)c3cnccc23)C1` [Embodiment 30, (R)-2-(1-((1-methylpiperidin-3-yl)amino)pyrido[3,4-d]pyridazin-4-yl)-5-(trifluoromethyl)phenol] had an IC50 of 2.9 nM.

For the molecule `CN1CCC[C@@H](Nc2nnc(-c3ccc(C(F)(F)F)cc3O)c3ccncc23)C1` [Embodiment 31, (R)-2-(4-((1-methylpiperidin-3-yl)amino)pyrido[3,4-d]pyridazin-1-yl)-5-(trifluoromethyl)phenol], the IC50 was 2.2 nM.

For the molecule `Cc1nc(N[C@@H]2CCC[C@@H](O)C2)nnc1-c1ccc(C(F)(F)F)cc1O` [Embodiment 36, 2-(3-(((1R,3R)-3-hydroxycyclohexyl)amino)-5-methyl-1,2,4-triazin-6-yl)-5-(trifluoromethyl)phenol], the IC50 is 54.2 nM.

`Cc1nc(N[C@@H]2CCCN(CC(N)=O)C2)nnc1-c1ccc(C(F)(F)F)cc1O` [Embodiment 42, (R)-2-(3-((6-(2-hydroxy-4-(trifluoromethyl)phenyl)-5-methyl-1,2,4-triazin-3-yl)amino)piperidin-1-yl) acetamide] yielded an IC50 of 62.7 nM.

Molecule `Cc1nc(N[C@@H]2CCCN(C(C)CO)C2)nnc1-c1ncc(C(F)(F)F)cc1O` (stereo partly drawn) [Embodiment 54, 2-(3-(((3R)-1-(1-hydroxypropyl-2-yl)piperidin-3-yl)amino)-5-methyl-1,2,4-triazin-6-yl)-5-(trifluoromethyl)pyridin-3-ol] showed an IC50 of 46.4 nM.

`C[C@]1(O)C[C@@H](Nc2nnc(-c3ccc(C(F)(F)F)cc3O)c3ccccc23)C1` [Embodiment 65] showed an IC50 of 10.4 nM.

Take `Oc1cc(C(F)(F)F)ccc1-c1nnc(N[C@@H]2CCCC[C@H]2O)c2cccnc12` [Embodiment 71]: the IC50 worked out at 92.8 nM.

Regarding `C[C@]1(O)C[C@@H](Nc2nnc(-c3ccc(C(F)(F)F)cc3O)c3ncccc23)C1` [Embodiment 76, 2-(5-(((cis)-3-hydroxy-3-methylcyclobutyl)amino)pyrido[2,3-d]pyridazin-8-yl)-5-(trifluoromethyl)phenol], the IC50 was 11.3 nM. Against the preceding molecule, the IC50 is about 8.2-fold lower.

The molecule `C[C@]1(O)C[C@@H](Nc2nnc(-c3ccc(C(F)(F)F)cc3O)c3ccncc23)C1` [Embodiment 77, 2-(4-(((cis)-3-hydroxy-3-methylcyclobutyl)amino)pyrido[3,4-d]pyridazin-1-yl)-5-(trifluoromethyl)phenol] had an IC50 of 19.4 nM. This IC50 is about 1.7-fold higher than that of the molecule before.

`Oc1cc(C(F)(F)F)ccc1-c1nnc(N[C@@H]2CCCC[C@H]2O)c2c1CCC2` [Embodiment 81, 2-(4-(((1R,2R)-2-hydroxycyclohexyl)amino)-6,7-dihydro-5H-cyclopenta[d]pyridazin-1-yl)-5-(trifluoromethyl)phenol]: the IC50 turned out to be 34.8 nM.

`C[C@]1(O)C[C@@H](Nc2nnc(-c3ccc(C(F)(F)F)cc3O)c3c2CCC3)C1` [Embodiment 82, 2-(4-(((cis)-3-hydroxy-3-methylcyclobutyl)amino)-6,7-dihydro-5H-cyclopenta[d]pyridazin-1-yl)-5-(trifluoromethyl)phenol] yielded an IC50 of 47.4 nM.

For the molecule `CN1CCC[C@@H](Nc2ncc(-c3c(O)cc(C(F)(F)F)cc3Cl)nn2)C1` [Embodiment 107], the IC50 is 29.2 nM.

For the molecule `Cc1cc(C)c(-c2cnc(N[C@@H]3CCCN(C)C3)nn2)c(O)c1` [Embodiment 108], the IC50 came out at 10.9 nM.

The record behind these values is US20250002470A1, “NITROGEN-CONTAINING COMPOUND, PREPARATION METHOD THEREFOR AND APPLICATION THEREOF” (ZHEJIANG AIXPLORER BIOTECH CO., LTD., priority 2021, published 2025).
